The test system of assay [1] is KRas-mediated phosphorylation of ERK in PSN1 cells. In words: Inhibition of KRas-mediated phosphorylation of ERK (Cisbio HTRF pERK), PSN1 cells. Format: cell-based. Particulars: Homo sapiens. The essentials: (§1)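 Overnight culture at 37° C./5% CO2 in RPMI containing 10% FBS, seeded 6,000 cells per well, preceded the assay. A covered 4-hour incubation at room temperature followed, then HTRF signal for phosphorylated ERK was measured.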
In general terms: In TR-FRET formats the signal depends on donor and acceptor labels being close together.

The subject of assay [2] is KRas-mediated phosphorylation of ERK in H460 cells. In words: Inhibition of KRas-mediated phosphorylation of ERK (Cisbio HTRF pERK), H460 cells. It counts as cell-based. Particulars: for IC50 / inhibition at 0.1 µM: Homo sapiens; for IC50: NCI-H460, HTRF pERK; for inhibition at 0.1 µM: NCI-H460, 3 h. The essentials: (§2)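 Each compound was tested at 10 concentrations, threefold apart with 10 uM the highest, for 3 hrs on 6,000 seeded cells; final DMSO was 0.8% and Trametinib (0.2 uM) served as Min control. Lysed cells were analysed for pERK by HTRF.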

In assay [3] the target is T1, KRas^G12R (Homo sapiens, UniProt P01116, G12R).
T1 construct: Biotinylated KRas (corresponding to amino acids 1-169, produced at Accelegan Inc.); biotin (biotinylated); purchased Accelegan Inc
The experiment in a line: KRas binding assay (TR-FRET tracer displacement), KRas G12R.

The target of assay [4] is T2, KRas^G12V (Homo sapiens, UniProt P01116, G12V).
T2 construct: Biotinylated KRas (corresponding to amino acids 1-169, produced at Accelegan Inc.); biotin (biotinylated); purchased Accelegan Inc
The experiment in a line: KRas binding assay (TR-FRET tracer displacement), KRas G12V.

For assay [5], the system named is KRas-mediated phosphorylation of ERK in A549 cells. In words: Inhibition of KRas-mediated phosphorylation of ERK (Cisbio HTRF pERK), A549 cells. Format: cell-based. Particulars: for IC50 / inhibition at 0.1 µM: Homo sapiens; for IC50: HTRF pERK; for inhibition at 0.1 µM: A549, 3 h. The essentials:
(§3)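 HTRF readout of phospho-ERK in cell lysates after 3 hrs of compound exposure. Dosing: 10 uM top, 3-fold steps, 10 doses, final DMSO 0.8%. Min control: 0.2 uM Trametinib. Lysis ran 40 mins at 4° C, and antibody detection 2 hrs at room temperature.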

Assay [6] relates to KRas-mediated phosphorylation of ERK in AsPC-1 cells. The experiment in a line: Inhibition of KRas-mediated phosphorylation of ERK (Cisbio HTRF pERK), AsPC-1 cells. Particulars: for IC50: HTRF pERK. Format: cell-based. The essentials: as §2
Assay [7] relates to KRas-mediated phosphorylation of ERK in H727 cells. In words: Inhibition of KRas-mediated phosphorylation of ERK (Cisbio HTRF pERK), H727 cells. Format: cell-based. Conditions: for IC50: HTRF pERK. The essentials: as §2
Assay [8] addresses T3, KRas^G12D (Homo sapiens, UniProt P01116, G12D).
T3 construct: Biotinylated KRas (corresponding to amino acids 1-169, produced at Accelegan Inc.); biotin (biotinylated); purchased Accelegan Inc
The experiment in a line: KRas binding assay (TR-FRET tracer displacement), KRas G12D.

Assay [9] deals with KRas-mediated phosphorylation of ERK in HCT116 cells. In words: Inhibition of KRas-mediated phosphorylation of ERK (Cisbio HTRF pERK), HCT116 cells. It counts as cell-based. Particulars: for IC50 / inhibition at 0.1 µM: Homo sapiens; for IC50: HCT-116, HTRF pERK; for inhibition at 0.1 µM: HCT-116, 3 h. The essentials: as §3
The subject of assay [10] is KRas-mediated phosphorylation of ERK in H358 cells. The experiment in a line: Inhibition of KRas-mediated phosphorylation of ERK (Cisbio HTRF pERK), H358 cells. Format: cell-based. Particulars: for IC50 / inhibition at 0.1 µM: Homo sapiens; for IC50: NCI-H358, HTRF pERK; for inhibition at 0.1 µM: NCI-H358, 3 h. The essentials: as §2
Assay [11] deals with KRas-mediated phosphorylation of ERK in MKN1 cells. In words: Inhibition of KRas-mediated phosphorylation of ERK (Cisbio HTRF pERK), MKN1 cells. It counts as cell-based. Conditions: Homo sapiens, MKN-1. The essentials: as §1
Where [12] appears, read: Homo sapiens, ASPC1, AsPC-1 cells.
Setting [13] is: Homo sapiens, NCI-H727, H727 cells.
The mark [14] stands for this setting: single point, 100 nM compound, 3 hrs, 0.1 µM.
Where [15] appears, read: single point, 100 nM compound, 3 hrs.

Each structure is given as a SMILES string.

T1 sequence (P01116 1-169 isoform P01116-2 G12R): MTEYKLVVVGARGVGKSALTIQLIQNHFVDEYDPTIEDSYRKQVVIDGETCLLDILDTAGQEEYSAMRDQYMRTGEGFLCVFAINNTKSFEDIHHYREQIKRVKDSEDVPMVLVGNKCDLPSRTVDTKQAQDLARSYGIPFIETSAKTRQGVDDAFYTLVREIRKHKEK
T2 sequence (P01116 1-169 isoform P01116-2 G12V): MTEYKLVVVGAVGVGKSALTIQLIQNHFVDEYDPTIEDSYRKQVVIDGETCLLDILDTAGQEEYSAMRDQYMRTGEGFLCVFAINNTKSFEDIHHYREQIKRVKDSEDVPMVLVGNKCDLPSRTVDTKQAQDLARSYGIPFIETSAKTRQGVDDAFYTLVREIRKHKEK
T3 sequence (P01116 1-169 isoform P01116-2 G12D): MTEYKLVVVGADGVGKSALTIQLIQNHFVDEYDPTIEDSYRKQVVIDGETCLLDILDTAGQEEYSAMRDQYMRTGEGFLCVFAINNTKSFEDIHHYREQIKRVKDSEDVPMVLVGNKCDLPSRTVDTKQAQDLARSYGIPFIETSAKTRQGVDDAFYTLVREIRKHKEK

In general, IC50 refers to the concentration needed to halve the response being measured. The low end stands for greater potency in that assay, the high end for weaker potency in that assay. `C[C@@H]1C[C@@H]1c1c(Cl)cc2[nH]ncc2c1-c1ncc2c(N3CCC[C@]4(C3)NC(=O)NC4=O)nc(OCC34CCCN3CCC4)nc2c1F` (atropisomer, axis not shown) [Example 887, (R)-7-(7-((R)-6-chloro-5-((1S,2R)-2-methylcyclopropyl)-1H-indazol-4-yl)-8-fluoro-2-((tetrahydro-1H-pyrrolizin-7a(5H)-yl)methoxy)pyrido[4,3-d]pyrimidin-4-yl)-1,3,7-triazaspiro[4.5]decane-2,4-dione]: the IC50 in assay [1] is over 10000 nM; in [2], 7040 nM; in assay [3], 2 nM; in assay [4], 3 nM; in assay [5], over 10000 nM; in assay [6] (setting [12]) it was over 10000 nM. The IC50 is over 10000 nM in assay [7] (setting [13]); 5 nM in assay [8]; over 10000 nM in assay [9]; 2540 nM in assay [10]; 1240 nM in assay [11].

Consider `CCc1c(F)ccc2cc(O)cc(-c3ncc4c(N5CC6CCC(C5)C6C#N)nc(OC[C@@]56CCCN5C[C@H](F)C6)nc4c3F)c12` (single isomer, unassigned) [Example 561], for which the IC50 in [1] is over 10000 nM; in [2], 5 nM; in [3] it was under 2 nM; in assay [4], under 2 nM; in [5], 4 nM; in assay [6] (AsPC-1 cells), 80 nM. In addition, the IC50 in assay [7] (H727 cells) came to 13 nM; in assay [8], 7 nM; in [9], 24 nM; in [10], 3 nM; in assay [11], 1 nM. Further, the “Inhibition (HTRF % at 100 nM) of KRas-mediated Phosphorylation of ERK, H460” value in [2] (setting [14]) amounted to 99%. For the same compound, the “Inhibition (HTRF % at 100 nM) of KRas-mediated Phosphorylation of ERK, A549” value in assay [5] (setting [14]) is 103%. Besides, in assay [6] (single point, 100 nM compound, 3 hrs, AsPC-1 cells, 0.1 µM), the “Inhibition (HTRF % at 100 nM) of KRas-mediated Phosphorylation of ERK, AsPC-1” value stood at 30%. Moreover, in [7] (single point, 100 nM compound, 3 hrs, H727 cells, 0.1 µM), the “Inhibition (HTRF % at 100 nM) of KRas-mediated Phosphorylation of ERK, H727” value is listed as 74%. Also, in assay [9] (setting [14]), the “Inhibition (HTRF % at 100 nM) of KRas-mediated Phosphorylation of ERK, HCT116” value was found to be 63%. The “Inhibition (HTRF % at 100 nM) of KRas-mediated Phosphorylation of ERK, H358” value in assay [10] (setting [14]) came out at 99%.

As a reminder, the inhibition is the change of the read-out against control, counted positive when it falls. High values mean strong suppression, low ones little suppression. Turning to `CCc1c(F)ccc2cc(O)cc(-c3ncc4c(N5C[C@H]6C[C@@H](C5)C(O)C6O)nc(OC[C@@]56CCCN5C[C@H](F)C6)nc4c3F)c12` (single isomer, unassigned) [Example 570], the IC50 in [1] is over 10000 nM; in assay [3], under 2 nM; in assay [4], 3 nM; in assay [5], 542 nM; in [6] (setting [12]), 1770 nM; in [7] (setting [13]) it was 280 nM. Besides, the IC50 in assay [8] was 12 nM; in assay [11], 56 nM. For the same compound, the inhibition at 0.1 µM in assay [2] (setting [15]) was 38%; in assay [5] (setting [15]), 26%; in assay [9] (setting [15]), 26%; in assay [10] (setting [15]), 69%.

Take `CCc1c(F)ccc2cc(O)cc(-c3ncc4c(NCc5cc(C(=O)N(C)C)n(C(F)F)n5)nc(OC[C@@]56CCCN5C[C@H](F)C6)nc4c3F)c12` [Example 662, 1-(difluoromethyl)-3-(((7-(8-ethyl-7-fluoro-3-hydroxynaphthalen-1-yl)-8-fluoro-2-(((2R,7aS)-2-fluorohexahydro-1H-pyrrolizin-7a-yl)methoxy)pyrido[4,3-d]pyrimidin-4-yl)amino)methyl)-N,N-dimethyl-1H-pyrazole-5-carboxamide]: the IC50 was over 10000 nM in assay [1]; 3 nM in assay [3]; under 2 nM in assay [4]; 837 nM in assay [6] (setting [12]); 274 nM in [7] (setting [13]); 3 nM in assay [8]. Moreover, in assay [11], the IC50 stood at 57 nM. Further, the inhibition at 0.1 µM in [5] (setting [15]) and in assay [10] (setting [15]) was 22% each time.

For `CCc1c(F)ccc2cc(O)cc(-c3ncc4c(N5CCCc6nc(C(=O)N(C)C)ccc6C5)nc(OC[C@@]56CCCN5C[C@H](F)C6)nc4c3F)c12` [Example 666, 6-(7-(8-ethyl-7-fluoro-3-hydroxynaphthalen-1-yl)-8-fluoro-2-(((2R,7aS)-2-fluorohexahydro-1H-pyrrolizin-7a-yl)methoxy)pyrido[4,3-d]pyrimidin-4-yl)-N,N-dimethyl-6,7,8,9-tetrahydro-5H-pyrido[3,2-c]azepine-2-carboxamide], the IC50 in assay [1] was over 10000 nM; in [3], under 2 nM; in assay [4] it was 2 nM; in assay [5] it was 207 nM; in [6] (setting [12]), 184 nM; in [7] (setting [13]) it was 320 nM. Besides, the IC50 is under 2 nM in assay [8] and 18 nM in assay [11]. The inhibition at 0.1 µM was found to be 59% in [2] (setting [15]) and 24% in assay [9] (setting [15]).

`CCc1c(F)ccc2cc(O)cc(-c3ncc4c(N5CCCn6nc(S(=O)(=O)N(C)C)cc6C5)nc(OC[C@@]56CCCN5C[C@H](F)C6)nc4c3F)c12` [Example 685, 5-(7-(8-ethyl-7-fluoro-3-hydroxynaphthalen-1-yl)-8-fluoro-2-(((2R,7aS)-2-fluorohexahydro-1H-pyrrolizin-7a-yl)methoxy)pyrido[4,3-d]pyrimidin-4-yl)-N,N-dimethyl-5,6,7,8-tetrahydro-4H-pyrazolo[1,5-a][1,4]diazepine-2-sulfonamide]: the IC50 in assay [1] was over 10000 nM; in assay [2], 188 nM; in [3], 6 nM; in [4] it was 8 nM; in [5] it was 1090 nM; in [6] (setting [12]), 245 nM. Further, the IC50 in [7] (setting [13]) was 1670 nM; in assay [8] it was under 2 nM; in assay [9], 359 nM; in assay [11], 9 nM.

Regarding `CCc1c(F)ccc2cc(O)cc(-c3ncc4c(N5CCCC6(CC(=O)N6)C5)nc(OC[C@]56CCCN5[C@H](COC(=O)N(C)C)CC6)nc4c3F)c12` (stereo partly drawn) [Example 715, ((3S,7aR)-7a-(((7-(8-ethyl-7-fluoro-3-hydroxynaphthalen-1-yl)-8-fluoro-4-(2-oxo-1,6-diazaspiro[3.5]nonan-6-yl)pyrido[4,3-d]pyrimidin-2-yl)oxy)methyl)hexahydro-1H-pyrrolizin-3-yl)methyl dimethylcarbamate], the IC50 came to 3620 nM in assay [1]; 4 nM in assay [3]; 2 nM in [4]; 344 nM in assay [5]; 97 nM in assay [6] (setting [12]); 153 nM in assay [7] (setting [13]). The IC50 in assay [8] came out at 4 nM; in assay [11], 43 nM. Further, the results for the inhibition at 0.1 µM in [2] (setting [15]) and in [9] (setting [15]) were 42% and 8%, respectively.

Take `CCc1c(F)ccc2cc(O)cc(-c3ncc4c(N5CCCCC5)nc(OC[C@@]56CCCN5C[C@H](F)C6)nc4c3F)c12` [Example 900, 5-ethyl-6-fluoro-4-(8-fluoro-2-(((2R,7aS)-2-fluorotetrahydro-1H-pyrrolizin-7a(5H)-yl)methoxy)-4-(piperidin-1-yl)pyrido[4,3-d]pyrimidin-7-yl)naphthalen-2-ol]: the IC50 in assay [1] was over 10000 nM; in assay [2], 96 nM; in assay [5], 136 nM; in [6] (setting [12]), 213 nM; in assay [7] (setting [13]), 240 nM; in assay [9], 504 nM. In addition, the half-inhibitory concentration (IC50) in assay [10] turned out to be 82 nM; in assay [11], 3 nM.

Source of the values: US20260015350A1, “AZAQUINAZOLINE PAN-KRAS INHIBITORS” (Mirati Therapeutics, Inc., priority 2022, published 2026).
